Data on 1 compound can be found in PMC11233931, “Remodeling tumor‐associated macrophage for anti‐cancer effects by rational design of irreversible inhibition of mitogen‐activated protein kinase‐activated protein kinase 2” (MedComm, 2024).

The subject of experiment [1] is MRC1 and ARG-1 mRNA in THP-1 monocyte induced macrophages. The experiment is described as follows: RT-PCR of M2 markers in IL-4/IL-13 stimulated THP-1 macrophages. In kind it is cell-based, human. The conditions noted are these: IL-4/IL-13 20 ng/mL. The text has this:
A previous study has reported that MK2 fostered M2‐like polarization of TAMs, driving a protumor and proangiogenic phenotype which in turn accelerates tumor progression.[21] We thus assessed the influence of compound 11 on macrophage polarization and function. Our experiments used human THP‐1 monocyte induced macrophages, mouse RAW264.7 macrophages, and mouse bone marrow‐derived macrophages (BMDM). These cells were induced into M2‐like macrophages using the classic IL‐4 and IL‐13 stimuli.
FIGURE 5 Inhibition of pro‐tumorigenic M2‐like polarization in macrophages by compound 11. (A–C) RT‐PCR analysis highlights the impact of compound 11 on MRC1 and ARG‐1 mRNA expression in various macrophage cells treated with IL‐4/IL‐13 alone or combined with compound 11 for 12 h or 24 h. […] Data are shown as the mean ± SD. ^* p < 0.05; ^*** p < 0.001 versus the vehicle group, determined by unpaired t test. […]
Total RNA was extracted from cultured cells using the EZ‐press RNA Purification Kit (EZBioscience). Complementary DNA was synthesized using the ABScript III RT Master Mix for qPCR with gDNA remover (ABclonal Technology) and was quantified with primers listed in Table S5. The relative mRNA expression levels were quantified through qPCR using the SYBR green gene expression assay (ABclonal Technology).

The next experiment deals with MK2 (Homo sapiens, UniProt P49137). The experiment is described as follows: Kinase kinetic analysis of irreversible inhibition (Mobility Shift Assay, preincubation then 100-fold dilution). In kind it is biochemical. The conditions noted are these: preincubation at 100 times the IC50, monitored continuously. The text has this:
To assess its role as an irreversible MK2 kinase inhibitor, we conducted a kinetic study on compound 11. The well‐known reversible ATP‐competitive MK2 inhibitor, PF‐3644022, served as a negative control. […] The kinase‐inhibitor mixture was subsequently diluted by a factor of 100 with a reaction buffer that included both substrate peptide and ATP. Under these circumstances, the activity of MK2 kinase was continuously monitored by assessing the phosphorylated substrate percentage. […] The enzyme activity curve almost overlapped with the curve of background group, which included only the substrate peptide without inhibitors and MK2 kinase.
In the kinase kinetic analysis to elucidate the irreversible inhibition of MK2 by compound 11, a Mobility Shift Assay was conducted. […] The EZ Reader (Caliper Life Sciences, MA) was then used to assess the kinase activity of the mixture, which was monitored continuously for 1 hour.

Experiment [2] concerns the target T1, 380 human recombinant protein kinases (Homo sapiens, UniProt Q9UL54).
T1 construct: purchased Eurofins (Celle Lévescault)
T1 sequence (Q9UL54 1-1235): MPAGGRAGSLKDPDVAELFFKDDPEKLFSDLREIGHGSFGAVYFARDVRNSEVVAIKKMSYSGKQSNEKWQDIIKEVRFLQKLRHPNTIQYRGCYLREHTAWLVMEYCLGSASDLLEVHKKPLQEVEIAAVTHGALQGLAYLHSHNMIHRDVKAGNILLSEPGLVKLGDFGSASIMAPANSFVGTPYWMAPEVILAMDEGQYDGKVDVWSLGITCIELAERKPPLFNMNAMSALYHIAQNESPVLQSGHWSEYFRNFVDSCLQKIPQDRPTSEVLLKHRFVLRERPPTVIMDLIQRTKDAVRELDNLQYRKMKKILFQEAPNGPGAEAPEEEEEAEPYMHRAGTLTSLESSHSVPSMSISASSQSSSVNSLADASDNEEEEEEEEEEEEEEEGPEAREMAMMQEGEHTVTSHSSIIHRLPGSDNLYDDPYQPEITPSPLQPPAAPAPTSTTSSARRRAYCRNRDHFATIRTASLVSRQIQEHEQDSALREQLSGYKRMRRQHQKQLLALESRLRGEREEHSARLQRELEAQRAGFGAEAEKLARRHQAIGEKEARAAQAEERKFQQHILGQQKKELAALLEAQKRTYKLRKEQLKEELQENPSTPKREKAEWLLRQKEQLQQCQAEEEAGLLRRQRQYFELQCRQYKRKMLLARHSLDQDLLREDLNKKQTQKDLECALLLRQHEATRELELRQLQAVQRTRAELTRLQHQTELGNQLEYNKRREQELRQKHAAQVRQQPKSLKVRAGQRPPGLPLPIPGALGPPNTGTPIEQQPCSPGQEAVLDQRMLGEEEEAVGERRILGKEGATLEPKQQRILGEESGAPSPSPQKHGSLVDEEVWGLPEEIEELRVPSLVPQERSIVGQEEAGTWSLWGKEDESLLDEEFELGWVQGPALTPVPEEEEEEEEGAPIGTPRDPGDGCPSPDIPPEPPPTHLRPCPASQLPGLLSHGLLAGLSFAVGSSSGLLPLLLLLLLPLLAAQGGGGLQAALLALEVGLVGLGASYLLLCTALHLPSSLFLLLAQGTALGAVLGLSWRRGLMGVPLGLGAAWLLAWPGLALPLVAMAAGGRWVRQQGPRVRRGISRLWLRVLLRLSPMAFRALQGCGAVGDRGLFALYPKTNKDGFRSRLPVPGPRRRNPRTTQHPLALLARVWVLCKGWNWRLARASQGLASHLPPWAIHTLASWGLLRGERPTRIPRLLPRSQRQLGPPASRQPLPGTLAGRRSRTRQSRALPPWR
The experiment is described as follows: Eurofins kinase selectivity profile against 380 other human recombinant kinases (Table S2). In kind it is biochemical. Conditions: TAO2(h), read-out: Inhibition rate (%). The protocol:
Subsequently, to ascertain whether the high potency of compound 11 was specific for MK2, an additional 380 human recombinant protein kinases were screened.
To assess the impact of various compounds on MK2 kinase activity, we utilized the ADP‐Glo Assay Kit (Promega) following the manufacturer's instructions. Luminescence measurements were taken using a SpectraMax Paradigm reader. The inhibition percentage was calculated using the following formula: ((specific signalDMSO control − specific signal inhibitor)/(specific signalDMSO control)) × 100%. The IC50 values were determined employing dose–response curve fitting via Prism (Graph Pad). Additionally, Eurofins company (Celle Lévescault) conducted the analysis on compound 11’s inhibitory activity against 380 other human recombinant kinases at various concentrations.

Sequence of MK2 (P49137 whole entry): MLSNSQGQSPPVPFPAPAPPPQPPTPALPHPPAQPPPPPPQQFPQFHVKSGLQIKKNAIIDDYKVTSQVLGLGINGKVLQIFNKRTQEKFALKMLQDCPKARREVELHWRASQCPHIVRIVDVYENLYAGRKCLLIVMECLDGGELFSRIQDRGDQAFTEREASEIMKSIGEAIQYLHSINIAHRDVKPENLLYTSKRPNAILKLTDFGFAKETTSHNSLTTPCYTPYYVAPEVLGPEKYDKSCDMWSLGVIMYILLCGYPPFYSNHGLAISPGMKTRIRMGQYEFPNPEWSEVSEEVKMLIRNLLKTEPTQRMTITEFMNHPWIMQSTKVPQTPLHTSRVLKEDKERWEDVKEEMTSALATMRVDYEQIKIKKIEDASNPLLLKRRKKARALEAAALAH

As usually defined, the inhibition is the drop in the measured response relative to a control, in per cent. Take `C=CC(=O)Nc1cc(-c2cc(-c3cc4c([nH]3)CCNC4=O)ccn2)ccc1OC(F)(F)F` [compound 11]: the “effect on transcriptional level of MRC1 and ARG-1” value in experiment [1] is listed as “significantly suppressed”. For the same compound, on MK2, the “MK2 kinase activity after 30 min preincubation with inhibitor and 100-fold dilution” value was “sustained and potent inhibition of kinase activity”. Moreover, in experiment [2] (10 nM), the inhibition at 0.01 µM was -7%. The inhibition at 0.1 µM in experiment [2] (100 nM) was found to be 1%. The inhibition at 1 µM in experiment [2] (1000 nM) turned out to be 0%.
